Data on twelve compounds can be found in US9339423B2, “Absorbent article” (UNICHARM CORPORATION, priority 2012, dated 2016).

Read-outs that look alike come from different tables or passages of the source. Bounds are passed on as bounds.

The nature of series [1]: Absorbent body migration rate of sanitary napkin. The conditions noted are these: horse EDTA blood, after second dropping; agent coated about 5 g/m^2. How it is done:
(§1) A commercially available sanitary napkin was prepared. The sanitary napkin was formed from a top sheet, formed of a hydrophilic agent-treated air-through nonwoven fabric (composite fiber composed of polyester and polyethylene terephthalate, basis weight: 35 g/m^2), a second sheet, formed of an air-through nonwoven fabric (composite fiber composed of polyester and polyethylene terephthalate, basis weight: 30 g/m^2), an absorbent body comprising pulp (basis weight: 150-450 g/m^2, increased at the center section), an acrylic super-absorbent polymer (basis weight: 15 g/m^2) and tissue as a core wrap, a water-repellent agent-treated side sheet, and a back sheet composed of a polyethylene film.
(§2) The skin contact surface of the top sheet of the sanitary napkin was coated with the aforementioned blood modifying agent. Each blood modifying agent was used directly, when the blood modifying agent was liquid at room temperature, or when the blood modifying agent was solid at room temperature it was heated to its […], and a control seam HMA gun was used for atomization of the blood modifying agent and coating onto the entire skin contact surface of the top sheet to a basis weight of about 5 g/m^2.
(§3) (obtained by adding appropriate amount of ethylenediaminetetraacetic acid (hereunder, “EDTA”) to horse blood to prevent coagulation) was dropped through the hole using a pipette (once), and after 1 minute, 3 g of horse EDTA blood at 37±1° C. was again added dropwise through the acrylic board hole with a pipette (twice).
In addition to the rewetting rate evaluation, the “absorbent body migration rate” was also measured as the time until migration of blood from the top sheet to the absorbent body after the second dropping of blood. The absorbent body migration rate is the time from introducing the blood onto the top sheet, until the redness of the blood […] on the surface and in the interior of the top sheet.

For series [2] the following is noted: at 20° C.; cited from earlier work.
A short description of series [3]: Rewetting rate of sanitary napkin with blood modifying agent-coated top sheet. Conditions: horse EDTA blood 3 g twice at 37±1° C.; agent coated about 5 g/m^2 on top sheet. The procedure:
as §1, §2, §3

Series [4] in a line: Water solubility, visual evaluation after 24 hours. The text has this: As used herein, the term “solubility” in regard to water solubility includes cases where the sample completely dissolves in deionized water to form a homogeneous mixture, and cases where the sample is completely emulsified. As used herein, “completely” means that no mass of the sample remains in the deionized water.

With Isopropyl citrate, in series [1], the “Absorber migration rate” value stood at 5 s. Consider `CCCCC(=O)CCCC` [5-nonanone], for which, in series [2], the Vapor pressure entry was “about 230 Pa”.

With `CCCCC(CC)C(=O)OCC(C)(C)COC(=O)C(CC)CCCC` (stereo not drawn) [UNISTAR H-208BRS, Neopentylglycol di-2-ethylhexanoate], the “Absorber migration rate” value in series [1] amounted to 5 s. On the same count and under the same terms, the same measure for `CCCCCCCCCCCCOC(=O)CCCCCCCCCCC` [ELECTOL WE20, Ester of dodecanoic acid (C12) and dodecyl alcohol (C12)]: 5 s.

Turning to Caprylic acid diglyceride, the “Absorber migration rate” value in series [1] was found to be 9 s.

In the case of `CCCCOC(=O)CC(CC(=O)OCCCC)(OC(C)=O)C(=O)OCCCC` [Tributyl O-acetylcitrate], the “Rewetting rate (%)” value in series [3] amounted to 6.2%. Moreover, the “Absorber migration rate” value in series [1] was 8 s. In series [4] (in 100 g of water at 25° C., 24 hours), the “Water solubility” value is less than 0.05 g.

Regarding `CCCCC(CC)C(=O)OCC(COC(=O)C(CC)CCCC)OC(=O)C(CC)CCCC` (stereo not drawn) [PANACET 800B], the “Rewetting rate (%)” value in series [3] came out at 2.0%. Besides, the “Absorber migration rate” value in series [1] is 3 s. Also, in series [4], the “Water solubility” value is less than 0.05 g. For `CC(C)CCCCCCCCCCCCCCCOC(=O)CC(O)C(=O)OCCCCCCCCCCCCCCCC(C)C` (stereo not drawn) [Diisostearyl malate], in series [3], the “Rewetting rate (%)” value is 5.5%. In addition, the “Absorber migration rate” value in series [1] stood at 8 s. Moreover, in series [4], the “Water solubility (g)” value is 20< g.

Consider `CCCCCCCCOC(=O)CCCCC(=O)OCCCCCCCC` [Dioctyl adipate], for which the “Absorber migration rate” value in series [1] is 6 s. On the same count and under the same terms, for `CCCCCCCCCCCC(=O)OCC(O)CO` (stereo not drawn) [Monomuls 90-L2 lauric acid monoglyceride, lauric acid monoglyceride] the value was 7 s; for `CCCCCCCC(=O)OCC(COC(=O)CCCCCCC)OC(=O)CCCCCCC` [PANACET 800], 3 s. Turning to `CCCCCCCCCCCCCC(=O)OCCCCCCCCCCCC` [ELECTOL WE40, Ester of tetradecanoic acid (C14) and dodecyl alcohol (C12)], the “Absorber migration rate” value in series [1] came to 4 s.
